Reference: patent publication US8518976B2, “Heteroaryl-substituted amides comprising a saturated linker group, and their use as pharmaceuticals” (Sanofi, priority 2005, dated 2013)

Tested on: eNOS promoter
Assay: Activation of eNOS transcription (eNOS promoter-luciferase reporter gene assay)
Assay type: cell-based
Settings: human endothelial cell line stably transfected with eNOS promoter-luciferase construct, 18 h incubation, determined graphically; read-out: EC50 values of transcription induction ratios (TIR)
Description: Activation of eNOS transcription was measured as described in detail by L^1 et al., “Activation of protein kinase C alpha and/or epsilon enhances transcription of the human endothelial nitric oxide synthase gene”, Mol. Pharmacol. 53 (1998) 630. Briefly, a 3.5 kB long fragment 5′ of the starting codon of the eNOS gene was cloned, sequenced and cloned in firefly luciferase expression plasmids to monitor activation of the eNOS promoter by reporter gene activity. A human endothelial cell line stable transfected and expressing this promoter-reporter construct was used for compound testing. Cells were incubated for 18 h with the compounds.
All compounds were dissolved in sterile dimethyl sulfoxide (DMSO). A final concentration of 0.5% DMSO in complete medium was allowed. Induction of reporter gene expression in these cells was measured using a standard luciferase assay system (Promega, Cat. No. E150) according to the manufacturer's instructions. Luciferase induction in cells incubated with compounds were compared to those incubated with solvent alone. The ratio of both activities (transcription induction ratio, TIR) was plotted as a function of compound concentration. Typically, TIR values started at low concentrations at a ratio of 1, indicating no compound effect, and extended up to a maximum TIR value TIR(max) which indicates the increase of the eNOS transcription. EC50 values of transcription induction ratios as a function of compound concentration were determined graphically.

## O=C1CSCCN1CCCc1ccc(-c2ccccc2Cl)nc1 [Example 7, 4-(3-(6-(2-Chlorophenyl)pyridin-3-yl)propyl)thiomorpholin-3-one]
  EC50: 500 to 5000 nM

## O=C(O)CCCC(=O)NCCCc1ccc(-c2ccc(F)cc2)nc1 [Example 17, 4-(3-(6-(4-Fluorophenyl)pyridin-3-yl)propylcarbamoyl)butyric acid]
  EC50: 500 to 5000 nM

## O=C1CCCCCN1CCCc1ccc(-c2ccc(F)cc2)nc1 [Example 18, 1-(3-(6-(4-Fluorophenyl)pyridin-3-yl)propyl)azepan-2-one]
  EC50: < 500 nM

## O=C1CSC=CN1CCCc1ccc(-c2ccc(F)cc2)nc1 [Example 25, 4-(3-(6-(4-Fluorophenyl)pyridin-3-yl)propyl)-4H-[1,4]thiazin-3-one]
  EC50: < 500 nM

## O=C1CCC(=O)N1CCNc1nc(-c2ccc(F)cc2)cs1 [Example 34, 1-(2-(4-(4-Fluorophenyl)thiazol-2-ylamino)ethyl)pyrrolidine-2,5-dione]
  EC50: 500 to 5000 nM

## O=C1CCC(=O)N1CCOc1ccc(-c2ccc(F)c(Cl)c2)nc1 [Example 50, 1-(2-(6-(3-Chloro-4-fluorophenyl)pyridin-3-yloxy)ethyl)pyrrolidine-2,5-dione]
  EC50: < 500 nM

## Cc1csc(-c2ccc(OCCN3C(=O)CCC3=O)cn2)c1 [Example 52, 1-(2-(6-(4-methylthiophen-2-yl)pyridin-3-yloxy)ethyl)pyrrolidine-2,5-dione]
  EC50: < 500 nM

## N#Cc1cccc(-c2ccc(OCCN3C(=O)CCC3=O)cn2)c1 [Example 64, 1-(2-(6-(3-cyanophenyl)pyridin-3-yloxy)ethyl)pyrrolidine-2,5-dione]
  EC50: 500 to 5000 nM

## O=C1CCC(=O)N1CCOc1ccc(-c2cccc3ccccc23)nc1 [Example 66, 1-(2-(6-(naphthalen-1-yl)pyridin-3-yloxy)ethyl)pyrrolidine-2,5-dione]
  EC50: 500 to 5000 nM

## Cc1cc(-c2ccc(OCCN3C(=O)CCC3=O)cn2)ccc1F [Example 86, 1-(2-(6-(4-fluoro-3-methylphenyl)pyridin-3-yloxy)ethyl)pyrrolidine-2,5-dione]
  EC50: < 500 nM
